From patent US20200087284A1, “[4-(PHENYLSULFONYL)PIPERAZIN-1-YL](1H-1, 2, 3-TRIAZOL-4-YL)METHANONES” (priority 2016, published 2020)

Target: T1, recombinant human AKR1C3 (Homo sapiens, UniProt P42330)
T1 construct: GST (cleaved yes); made in house; host or cells: E. coli
T1 sequence (P42330 1-323): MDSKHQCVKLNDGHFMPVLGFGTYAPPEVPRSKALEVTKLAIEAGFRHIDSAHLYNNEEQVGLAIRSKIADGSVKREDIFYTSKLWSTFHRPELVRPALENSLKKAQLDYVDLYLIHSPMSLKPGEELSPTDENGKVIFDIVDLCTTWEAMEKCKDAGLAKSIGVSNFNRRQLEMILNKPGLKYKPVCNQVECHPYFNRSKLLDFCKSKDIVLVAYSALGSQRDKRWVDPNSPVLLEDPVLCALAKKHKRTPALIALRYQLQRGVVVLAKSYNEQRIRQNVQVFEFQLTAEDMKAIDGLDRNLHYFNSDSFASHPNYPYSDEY
Assay: AKR1C3-inhibitory activity assay (Coumberone to Coumberol fluorescence)
Assay type: biochemical
Conditions: recombinant human AKR1C3, 10 μM NADPH, 0.3 μM Coumberone, 22° C., typically 90 min
Protocol: AKR1C3-Inhibitory Activity Assay
The AKR1C3-inhibitory activity of the substances of the present invention was measured in the AKR1C3 assay described in the paragraphs below.
Essentially, the enzyme activity is measured by quantification of the generation of Coumberol from Coumberone (Halim et al. J. AM. CHEM. SOC. 2008, 130:14123-14128 and Yee et al. Proc. Natl. Acad. Sci. USA 2006, 103:13304-13309). In this test, the increase of the highly fluorescent Coumberol by NADPH- (nicotinamide adenine dinucleotide phosphate)-dependent reduction of the non-fluorescent Coumberone by AKR1C3 was determined.
The enzyme used was recombinant human AKR1C3 (Aldo-keto reductase family 1 member C3; GenBank Accession No. NM_003739). This was expressed in E. coli as GST (glutathione S transferase) fusion protein and purified by glutathione Sepharose affinity chromatography. The GST was removed by digestion with thrombin and subsequent size exclusion chromatography (Dufort, I., Rheault, P., Huang, X F., Soucy, P., and Luu-The, V., Endocrinology 140, 568-574 (1999)).
For the assay, 50 nI of a 100-fold concentrated solution of the test substance in DMSO were pipetted into a black low-volume 384-well microtiter plate (Greiner Bio-One, Frickenhausen, Germany), 2.5 μl of a solution of AKR1C3 in assay buffer [50 mM potassium phosphate buffer pH 7, 1 mM DTT, 0.0022% (w/v) Pluronic F-127, 0.01% BSA (w/v) and protease inhibitor cocktail (Complete, EDTA-free Protease Inhibitor Cocktail from Roche)] were added and the mixture was incubated for 15 min to allow pre-binding of the substances to the enzyme prior to the enzyme reaction. The enzyme reaction was then started by addition of 2.5 μl of a solution of NADPH (20 μM→final concentration in 5 μl of assay volume is 10 μM) and Coumberone (0.6 μM→final concentration in 5 μl of assay volume is 0.3 μM) in assay buffer, and the resulting mixture was incubated at 22° C. for the reaction time of typically 90 min. The concentration of the AKR1C3 and the reaction time was adapted to the respective activity of the enzyme preparation and adjusted such that the assay was carried out in the linear range. Typical AKR1C3 concentrations were in the region of 1 nM. The reaction was stopped by addition of 2.5 μl of a stop solution consisting of 3 μM EM-1404 as inhibitor (U.S. Pat. No. 6,541,463) in 50 mM HEPES pH7.5 (3 μM EM-1404→final concentration in 7.5 μl of assay volume is 1 μM). The fluorescence of the Coumberole was then measured at 520 nm (excitation at 380 nm) using a suitable measuring instrument (Pherastar from BMG Labtechnologies). The intensity of the fluorescence was used as a measure of the amount of Coumberole formed and thus of the enzyme activity of AKR1C3. The data were normalized (enzyme reaction without inhibitor=0% inhibition; all other assay components, but no enzyme=100% inhibition).

Row | Structure (SMILES) | IC50
1 | Cc1ccc(S(=O)(=O)N2CCN(C(=O)c3cnn[nH]3)CC2(C)C)cc1 [Example 6, {3,3-dimethyl-4-[(4-methylphenyl)sulfonyl]piperazin-1-yl}(1H-1,2,3-triazol-5-yl)methanone] | 8 nM
2 | C[C@@H]1CN(S(=O)(=O)c2ccc(C(F)(F)F)cc2)C[C@H](C)N1C(=O)c1c[nH]nn1 [Example 5, [(2R,6S)-2,6-dimethyl-4-{[4-(trifluoromethyl)phenyl]sulfonyl}piperazin-1-yl](1H-1,2,3-triazol-4-yl)methanone] | 107 nM
3 | Cc1ccc(S(=O)(=O)N2C[C@@H](C)N(C(=O)c3c[nH]nn3)[C@@H](C)C2)cc1 [Example 3, {(2R,6S)-2,6-dimethyl-4-[(4-methylphenyl)sulfonyl]piperazin-1-yl}(1H-1,2,3-triazol-4-yl)methanone] | 24 nM
4 | CCc1ccc(S(=O)(=O)N2CCN(C(=O)c3cnn[nH]3)CC2(C)C)cc1 [Example 7, {4-[(4-ethylphenyl)sulfonyl]-3,3-dimethylpiperazin-1-yl}(1H-1,2,3-triazol-5-yl)methanone] | 8 nM
5 | C[C@@H]1CN(S(=O)(=O)c2ccc(F)cc2F)C[C@H](C)N1C(=O)c1c[nH]nn1 [Example 4, {(2R,6S)-4-[(2,4-difluorophenyl)sulfonyl]-2,6-dimethylpiperazin-1-yl}(1H-1,2,3-triazol-4-yl)methanone] | 12 nM
6 | Cc1ccc(S(=O)(=O)N2C[C@H](C)N(C(=O)c3cnn[nH]3)C[C@H]2C)cc1 [Example 1, {(2S,5R)-2,5-dimethyl-4-[(4-methylphenyl)sulfonyl]piperazin-1-yl}(1H-1,2,3-triazol-5-yl)methanone] | 6 nM
7 | CC1(C)CN(C(=O)c2cnn[nH]2)CCN1S(=O)(=O)c1ccc(F)cc1Cl [Example 9, {4-[(2-chloro-4-fluorophenyl)sulfonyl]-3,3-dimethylpiperazin-1-yl}(1H-1,2,3-triazol-5-yl)methanone] | 11 nM
8 | CC1(C)CN(C(=O)c2cnn[nH]2)CCN1S(=O)(=O)c1ccc(F)cc1F [Example 8, {4-[(2,4-difluorophenyl)sulfonyl]-3,3-dimethylpiperazin-1-yl}(1H-1,2,3-triazol-5-yl)methanone] | 45 nM
9 | C[C@@H]1CN(C(=O)c2cnn[nH]2)[C@@H](C)CN1S(=O)(=O)c1ccc(F)cc1F [Example 2, {(2S,5R)-4-[(2,4-difluorophenyl)sulfonyl]-2,5-dimethylpiperazin-1-yl}(1H-1,2,3-triazol-5-yl)methanone] | 3 nM
